Data published in ChEMBL document CHEMBL4811256, “Synthesis and evaluation of multi-target-directed ligands with BACE-1 inhibitory and Nrf2 agonist activities as potential agents against Alzheimer's disease” (Eur J Med Chem, 2021).
Calls of active or inactive are those of the source. The calls are words filed in the database; no cut-off is given here.

Assays:
HEK293 = test: Inhibition of amyloid beta(1 to 40) secretion in human HEK293T cells transfected with human APP harboring Swedish double mutant K595N/M596L measured after 24 hrs by ELISA; assay type: functional, cell-based; conditions: dose 2.5-10 µM
PC-12 [1] = test: Cytoprotective activity against 6-OHDA induced cell death in rat PC-12 cells assessed as decrease in LDH release pretreated for 12 hrs followed by 6-OHDA challenge by LDH assay; assay type: functional, cell-based; conditions: dose 2.5-10 µM
PC-12 [2] = test: Protection against H2O2-induced mitochondrial dysfunction in rat PC-12 cells assessed as change in mitochondrial membrane potential at 5 uM pretreated with compound for 12 hrs followed by H2O2 challenge by JC-1 staining based flow cytometry (reference value: 73 %); assay type: functional
PC-12 [3] = test: Prevention of 6-OHDA-induced calcium overload in rat PC-12 cells assessed as reduction in intracellular free calcium pretreated with compound for 12 hrs followed by 6-OHDA challenge by Fluo-3AM based fluorescence assay; assay type: functional, cell-based; conditions: dose 2.5-10 µM
PC-12 [4] = test: Prevention of H2O2-induced calcium overload in rat PC-12 cells assessed as reduction in intracellular free calcium pretreated with compound for 12 hrs followed by H2O2 challenge by Fluo-3AM based fluorescence assay; assay type: functional, cell-based; conditions: dose 2.5-10 µM
PC-12 [5] = test: Protection against H2O2-induced apoptosis in rat PC-12 cells assessed as viable cells at 2.5 uM pretreated for 12 hrs followed by H2O2 challenge by annexin V FITC/propidium iodide staining based flow cytometry (reference value: 73.3 %); assay type: functional; conditions: read-out: Activity
PC-12 [6] = test: Protection against H2O2-induced apoptosis in rat PC-12 cells assessed as early apoptic cells at 2.5 uM pretreated for 12 hrs followed by H2O2 challenge by annexin V FITC/propidium iodide staining based flow cytometry (reference value: 2.2 %); assay type: functional
PC-12 [7] = test: Protection against H2O2-induced apoptosis in rat PC-12 cells assessed as late apoptic cells at 2.5 uM pretreated for 12 hrs followed by H2O2 challenge by annexin V FITC/propidium iodide staining based flow cytometry (reference value: 20.8 %); assay type: functional
PC-12 [8] = test: Protection against H2O2-induced apoptosis in rat PC-12 cells assessed as necrotic cells at 2.5 uM pretreated for 12 hrs followed by H2O2 challenge by annexin V FITC/propidium iodide staining based flow cytometry (reference value: 3.7 %); assay type: functional
PC-12 [9] = test: Protection against 6-OHDA-induced apoptosis in rat PC-12 cells assessed as necrotic cells at 5 uM pretreated for 12 hrs followed by 6-OHDA challenge by annexin V FITC/propidium iodide staining based flow cytometry (reference value: 3.7 %); assay type: functional
PC-12 [10] = test: Protection against 6-OHDA-induced apoptosis in rat PC-12 cells assessed as late apoptotic cells at 10 uM pretreated for 12 hrs followed by 6-OHDA challenge by annexin V FITC/propidium iodide staining based flow cytometry (reference value: 17.3 %); assay type: functional
PC-12 [11] = test: Protection against 6-OHDA-induced apoptosis in rat PC-12 cells assessed as cell rescue pretreated for 12 hrs followed by 6-OHDA challenge by Hoechst 33342 staining based confocal microscopic analysis; assay type: functional; conditions: dose 2.5-10 µM
PC-12 [12] = test: Protection against H2O2-induced apoptosis in rat PC-12 cells assessed as cell rescue pretreated for 12 hrs followed by H2O2 challenge by Hoechst 33342 staining based confocal microscopic analysis; assay type: functional; conditions: dose 2.5-10 µM
PC-12 [13] = test: Cytoprotective activity against H2O2-induced oxidative stress in rat PC-12 cells assessed as decrease in cell death at 10 uM pretreated for 12 hrs followed by H2O2 challenge by MTT assay; assay type: functional, cell-based
PC-12 [14] = test: Activation of Keap1-Nrf2-ARE pathway in rat PC-12 assessed as upregulation of HO-1 protein expression measured after 12 hrs by Western blot analysis; conditions: filed as activator, dose 2.5-10 µM
PC-12 [15] = test: Activation of Keap1-Nrf2-ARE pathway in rat PC-12 assessed as upregulation of NQO1 protein expression measured after 12 hrs by Western blot analysis; conditions: filed as activator, dose 2.5-10 µM
PC-12 [16] = test: Activation of Keap1-Nrf2-ARE pathway in rat PC-12 assessed as upregulation of GCLC protein expression measured after 12 hrs by Western blot analysis; conditions: filed as activator, dose 2.5-10 µM
PC-12 [17] = test: Activation of Keap1-Nrf2-ARE pathway in rat PC-12 assessed as upregulation of GCLM protein expression measured after 12 hrs by Western blot analysis; conditions: filed as activator, dose 2.5-10 µM
PC-12 [18] = test: Activation of Keap1-Nrf2-ARE pathway in rat PC-12 assessed as accumulation of Nrf2 in cytosol at 10 uM measured up to 24 hrs by Western blot analysis; assay type: subcellular; conditions: filed as activator, time hrs <=24
PC-12 [19] = test: Cytoprotective activity against H2O2-induced cell damage in rat PC-12 cells transfected with Nrf2 siRNA at 10 uM; assay type: functional, cell-based
[20] = biological target: T1, Nuclear factor erythroid 2-related factor 2 (Mus musculus) (UniProt Q60795); test: Activation of Nrf2 in mouse BV-2 cells assessed as decrease in LPS-induced IL-6 production pretreated with compound for 2 hrs followed by LPS stimulation and further incubated for 18 hrs […]; assay type: cell-based; conditions: filed as activator, dose 10.0 µM, time 20.0 hrs
T1 sequence (whole entry): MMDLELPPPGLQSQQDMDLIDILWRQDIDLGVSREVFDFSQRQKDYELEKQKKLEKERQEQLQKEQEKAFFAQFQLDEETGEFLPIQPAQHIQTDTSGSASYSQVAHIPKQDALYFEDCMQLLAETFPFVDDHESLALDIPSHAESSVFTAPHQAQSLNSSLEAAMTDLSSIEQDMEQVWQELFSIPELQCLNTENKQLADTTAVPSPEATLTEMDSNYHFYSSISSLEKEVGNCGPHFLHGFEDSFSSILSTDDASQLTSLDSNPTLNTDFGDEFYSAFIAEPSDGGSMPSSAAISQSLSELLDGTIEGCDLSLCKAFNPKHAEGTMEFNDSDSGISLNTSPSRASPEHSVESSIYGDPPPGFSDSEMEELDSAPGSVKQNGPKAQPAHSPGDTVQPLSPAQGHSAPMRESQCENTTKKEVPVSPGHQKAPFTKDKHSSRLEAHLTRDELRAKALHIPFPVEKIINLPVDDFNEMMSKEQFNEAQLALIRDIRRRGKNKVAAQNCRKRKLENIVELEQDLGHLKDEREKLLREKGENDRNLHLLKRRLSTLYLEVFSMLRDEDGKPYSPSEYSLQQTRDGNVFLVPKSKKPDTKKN

[21] = biological target: T1, Nuclear factor erythroid 2-related factor 2 (Mus musculus); test: Activation of Nrf2 in mouse BV-2 cells assessed as upregulation of HO-1 protein expression after 24 hrs by Western blot analysis; assay type: cell-based; conditions: filed as activator, dose 2.5-10 µM
[22] = biological target: T1, Nuclear factor erythroid 2-related factor 2 (Mus musculus); test: Activation of Nrf2 in mouse BV-2 cells assessed as upregulation of TrxR1 protein expression after 24 hrs by Western blot analysis; assay type: cell-based; conditions: filed as activator, dose 2.5-10 µM
[23] = biological target: T1, Nuclear factor erythroid 2-related factor 2 (Mus musculus); test: Activation of Nrf2 in mouse BV-2 cells assessed as upregulation of GCLM protein expression after 24 hrs by Western blot analysis; assay type: cell-based; conditions: filed as activator, dose 2.5-10 µM
[24] = Binding affinity to N-Acetyl-L-cysteine assessed ascompound-NAC covalent adduct formation measured after 3 hrs by Q-TOF mass spectroscopy

CN1C(N)=N[C@](C)(c2cc(-n3[se]c4cc(F)ccc4c3=O)ccc2F)CS1(=O)=O
inhibition (HEK293): Active | Activity (PC-12 [1]): Dose-Dependent Effect | Activity (PC-12 [2]): 85.9% | Activity (PC-12 [3]): Dose-Dependent Effect | Activity (PC-12 [4]): Dose-Dependent Effect | viability at 2.5 µM (PC-12 [5]): 83.6% | Activity (PC-12 [6]): 2% | Activity (PC-12 [7]): 12.3% | Activity (PC-12 [8]): 2.1% | Activity (PC-12 [9]): 2.3% | Activity (PC-12 [10]): 6.7% | Activity (PC-12 [11]): Dose-Dependent Effect | Activity (PC-12 [12]): Dose-Dependent Effect | Activity (PC-12 [13]): Active | Activity (PC-12 [14]): Active | Activity (PC-12 [15]): Active | Activity (PC-12 [16]): Active | Activity (PC-12 [17]): Active | Activity (PC-12 [18]): Active | Activity (PC-12 [19]): inactive | Activity [20]: Active | Activity [21]: Dose-Dependent Effect | Activity [22]: Dose-Dependent Effect | Activity [23]: Dose-Dependent Effect | Activity [24]: Active
